# Source: publication PMC5771863 (Anesthesiology, 2018)
# Read-outs that look alike come from different tables or passages of the source.
# Columns and labels:
# Format in all cases: cell-based
# [1] = molecular target: T1, α1β3M286Cγ2L GABAA receptors (Homo sapiens, UniProt P14867+P28472, M311C); test: GABA EC5 enhancement by anesthetics, voltage clamp in Xenopus oocytes; details: β3M286C; […] ETO, 5 μM PRO, […] ALX
# [2] = molecular target: T2, α1β3F289Cγ2L GABAA receptors (Homo sapiens, UniProt P14867+P28472, F314C); details: β3F289C; […] ETO, 5 μM PRO, […] ALX
# [3] = molecular target: α1β3F293Cγ2L GABAA receptors (Homo sapiens, UniProt P14867+P28472, F318C); details: β3F293C; […] ETO, 5 μM PRO, […] ALX
# [4] = molecular target: α1β3L297Cγ2L GABAA receptors (Homo sapiens, UniProt P14867+P28472, L322C); test: GABA EC5 enhancement by anesthetics, voltage clamp in Xenopus oocytes; details: β3L297C; […] ETO, 5 μM PRO, […] ALX
# [5] = molecular target: α1β3E298Cγ2L GABAA receptors (Homo sapiens, UniProt P14867+P28472, E323C); test: as above; details: β3E298C; […] ETO, 5 μM PRO, […] ALX
# [6] = molecular target: α1β3T262Cγ2L GABAA receptors (Homo sapiens, UniProt P14867+P28472, T287C); test: Substituted cysteine modification-protection; details: pCMBS + maximal GABA, 10 μM ETO, 20 μM PRO
# [7] = molecular target: T1, α1β3M286Cγ2L GABAA receptors; details: β3M286C; pCMBS + maximal GABA; 10 μM ETO, 20 μM PRO, 10 μM ALX
# [8] = molecular target: T2, α1β3F289Cγ2L GABAA receptors; details: pCMBS + maximal GABA
# [9] = molecular target: α1β3V290Cγ2L GABAA receptors (Homo sapiens, UniProt P14867+P28472, V315C); details: α1β3V290Cγ2L; pCMBS + maximal GABA; 10 μM ETO, 20 μM PRO, 10 μM ALX
# [10] = 10 μM ETO, 20 μM PRO, 10 μM ALX
# T1 sequence (P14867 28-456): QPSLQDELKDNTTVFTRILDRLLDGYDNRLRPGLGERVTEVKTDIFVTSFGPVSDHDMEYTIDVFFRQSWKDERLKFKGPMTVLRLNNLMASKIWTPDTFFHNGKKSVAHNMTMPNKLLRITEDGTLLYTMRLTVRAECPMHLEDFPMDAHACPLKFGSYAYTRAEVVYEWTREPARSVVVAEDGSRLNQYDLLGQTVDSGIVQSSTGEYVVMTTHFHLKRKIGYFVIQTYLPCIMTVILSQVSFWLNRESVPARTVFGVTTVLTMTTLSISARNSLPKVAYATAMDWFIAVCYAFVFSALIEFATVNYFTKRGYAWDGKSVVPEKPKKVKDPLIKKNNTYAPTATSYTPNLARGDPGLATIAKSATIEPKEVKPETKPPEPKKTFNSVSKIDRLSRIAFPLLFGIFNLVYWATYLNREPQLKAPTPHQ
# T1 sequence (P28472 26-473 M311C): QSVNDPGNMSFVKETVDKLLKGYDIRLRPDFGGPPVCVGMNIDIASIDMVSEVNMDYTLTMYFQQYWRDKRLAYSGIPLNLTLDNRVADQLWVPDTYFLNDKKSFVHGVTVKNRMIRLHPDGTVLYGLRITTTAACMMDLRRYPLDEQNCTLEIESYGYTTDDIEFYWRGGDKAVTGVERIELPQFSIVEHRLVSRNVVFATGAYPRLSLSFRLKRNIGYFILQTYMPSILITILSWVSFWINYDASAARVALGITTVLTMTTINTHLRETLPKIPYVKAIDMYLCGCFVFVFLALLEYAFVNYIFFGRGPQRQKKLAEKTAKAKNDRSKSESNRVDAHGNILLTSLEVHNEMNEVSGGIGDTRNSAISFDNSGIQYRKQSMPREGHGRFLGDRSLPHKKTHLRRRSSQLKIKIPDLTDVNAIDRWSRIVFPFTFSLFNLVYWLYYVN
# T1 sequence (P18507 40-475 partner): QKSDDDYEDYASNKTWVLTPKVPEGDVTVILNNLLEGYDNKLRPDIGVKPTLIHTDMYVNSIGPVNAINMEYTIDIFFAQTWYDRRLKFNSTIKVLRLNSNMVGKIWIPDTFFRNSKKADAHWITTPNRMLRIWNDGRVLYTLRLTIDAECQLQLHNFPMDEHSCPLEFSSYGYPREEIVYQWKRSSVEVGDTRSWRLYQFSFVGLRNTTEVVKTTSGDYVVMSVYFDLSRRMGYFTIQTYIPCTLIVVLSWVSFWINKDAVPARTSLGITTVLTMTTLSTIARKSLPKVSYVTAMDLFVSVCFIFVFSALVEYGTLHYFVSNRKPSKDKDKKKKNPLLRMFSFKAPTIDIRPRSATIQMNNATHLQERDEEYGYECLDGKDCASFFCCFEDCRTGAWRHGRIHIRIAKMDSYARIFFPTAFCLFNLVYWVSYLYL
# T2 sequence (P14867 28-456): as the sequence (P14867 28-456) above
# T2 sequence (P28472 26-473 F314C): as the sequence (P28472 26-473 M311C) above, with C286M, F289C counted along it
# T2 sequence (P18507 40-475 partner): as the sequence (P18507 40-475 partner) above
# Chain of α1β3T262Cγ2L GABAA receptors (P14867 28-456): as the sequence (P14867 28-456) above
# Chain of α1β3T262Cγ2L GABAA receptors (P28472 26-473 T287C): as the sequence (P28472 26-473 M311C) above, with T262C, C286M counted along it
# Chain of α1β3T262Cγ2L GABAA receptors (P18507 40-475 partner): as the sequence (P18507 40-475 partner) above
# Chain of α1β3F293Cγ2L GABAA receptors (P14867 28-456): as the sequence (P14867 28-456) above
# Chain of α1β3F293Cγ2L GABAA receptors (P28472 26-473 F318C): as the sequence (P28472 26-473 M311C) above, with C286M, F293C counted along it
# Chain of α1β3F293Cγ2L GABAA receptors (P18507 40-475 partner): as the sequence (P18507 40-475 partner) above
# Chain of α1β3V290Cγ2L GABAA receptors (P14867 28-456, stated change not applied): as the sequence (P14867 28-456) above
# Chain of α1β3V290Cγ2L GABAA receptors (P28472 26-473 V315C): as the sequence (P28472 26-473 M311C) above, with C286M, V290C counted along it
# Chain of α1β3V290Cγ2L GABAA receptors (P18507 40-475 partner): as the sequence (P18507 40-475 partner) above
# Chain of α1β3E298Cγ2L GABAA receptors (P14867 28-456): as the sequence (P14867 28-456) above
# Chain of α1β3E298Cγ2L GABAA receptors (P28472 26-473 E323C): as the sequence (P28472 26-473 M311C) above, with C286M, E298C counted along it
# Chain of α1β3E298Cγ2L GABAA receptors (P18507 40-475 partner): as the sequence (P18507 40-475 partner) above
# Chain of α1β3L297Cγ2L GABAA receptors (P14867 28-456): as the sequence (P14867 28-456) above
# Chain of α1β3L297Cγ2L GABAA receptors (P28472 26-473 L322C): as the sequence (P28472 26-473 M311C) above, with C286M, L297C counted along it
# Chain of α1β3L297Cγ2L GABAA receptors (P18507 40-475 partner): as the sequence (P18507 40-475 partner) above
Compound,EC5 enhancement compared to wild-type [1],EC5 enhancement compared to wild-type [2],EC5 enhancement compared to wild-type [3],EC5 enhancement compared to wild-type [4],EC5 enhancement compared to wild-type [5],effect on apparent rate of pCMBS modification [6],effect on apparent rate of pCMBS modification [7],"effect on apparent rate of pCMBS modification [8, 10]",effect on apparent rate of pCMBS modification [9],"effect on apparent rate of pCMBS modification ([8]; 50 μM ETO, 100 μM PRO, 50 μM ALX)"
"CCOC(=O)c1cncn1[C@H](C)c1ccccc1 [ETO, R-Etomidate]",reduced,reduced,increased,increased,increased,unaffected,block modification,weakly blocked,strongly blocked,–
"CC(C)c1cccc(C(C)C)c1O [PRO, 2,6-diisopropylphenol]",reduced,reduced,reduced,–,–,accelerated,block modification,unaffected,strongly blocked,neither 100 μM PRO nor 50 μM ALX inhibited modification
